Assay results reported in patent publication EP2522329A1, “Use of resveratrol and arbutin” (DSM IP Assets B.V., priority 2011, dated 2012).
Where two headings read alike, the source gives them in different places.

System: POMC
Assay: Gene modulation in normal human epidermal melanocytes (NHEM), RT-qPCR PCR array of mRNA expression
Format: cell-based
Conditions: Melanocyte, 72 h
Procedure: Normal human epidermal melanocytes were cultivated for 24 hours. […] Cells were cultivated for additional 72 hours. All experimental conditions were performed in triplicate.
At the end of the cultivation, the cells were harvested and washed with phosphate buffered saline (PBS) solution and immediately frozen at -80 °C. The expression of selected markers was analyzed using RT-qPCR method on mRNA extracted from cells layer for each treatment condition. The differential expression analysis was performed by PCR arrays of the screening format "mQPA H-Melanocyte-64", which focuses on 64 genes selected for their importance in pigmentation and melanocyte biology.
Total RNA was extracted from each sample using TRI-Reagent®. The amount and quality of the RNA was evaluated using a lab-on-a-chip Bioanalyzer (Agilent technologies). Potential contaminants traces of DNA were removed […] The incorporation of fluorescence in amplified DNA was measured continuously during the PCR cycles. […] The value selected for RE calculations is the "output point" (Ct) of the fluorescence curve. For a given marker, the highest is the cycle number; the lowest, is the mRNA quantity. The RE value is expressed in arbitrary units (AU) according to the equation: (((1)/(2)))^NC x 10^6 Where NC is the number of cycles. [formula]

Work on `Oc1ccc(C=Cc2cc(O)cc(O)c2)cc1` [Resveratrol, 3,4',5 trihydroxystilbene] yielded an activation at 5 µg/mL (read-out: POMC expression ratio compared to control) of 5% and an activation at 5 µg/mL (read-out: modulation of expression of the gene POMC when compared to untreated cells) of 5%.
